Test results reported in patent US20260232767A1, “INTERLEUKIN-23 RECEPTOR ANTAGONIST PEPTIDES FOR USE IN THE TREATMENT OF PSORIASIS” (Janssen Pharmaceutica NV, priority 2023, published 2026).

Tested on: subjects with moderate-to-severe plaque psoriasis
Test: Safety, adverse events, Example 2 through Week 56
Type: in vivo, human
Source text: The LTE safety analysis was based on randomized participants in Example who entered the present long-term extension study and received at least one dose of study intervention (including a partial dose) during the study period.

[1] = 100 mg QD, Week 16 through Week 56
[2] = 100 mg QD, LTE Safety analysis set

## CC(=O)NCCCC[C@@H]1NC(=O)[C@H](Cc2c[nH]c3c(C)cccc23)NC(=O)[C@H]([C@@H](C)O)NC(=O)[C@H](CC(N)=O)NC(=O)[C@@H](NC(C)=O)C(C)(C)SSC(C)(C)[C@@H](C(=O)N[C@@H](Cc2ccc(OCCN)cc2)C(=O)N[C@@H](Cc2ccc3ccccc3c2)C(=O)NC2(C(=O)N[C@@H](CCC(=O)O)C(=O)N[C@@H](CC(N)=O)C(=O)N[C@@H](Cc3cccnc3)C(=O)N(C)CC(N)=O)CCOCC2)NC1=O [IL-23 receptor antagonist peptide, Ac-[Pen]*-N-T-[W(7-Me)]-[Lys(Ac)]-[Pen]*-Phe[4-(2-aminoethoxy)]-[2-Nal]-[THP]-E-N-[3-Pal]-Sarc-NH2 (*[Pen]-[Pen]* formdisulfidebond)]
100 mg BID, Week 16-56
  Subjects with treatment-emergent AE: Headache: 0
  Subjects with treatment-emergent AE: Investigations: 4
  Subjects with treatment-emergent AE: Meniscus injury: 0
  Subjects with treatment-emergent AE: Sinusitis: 0
  Subjects with treatment-emergent AE: Vomiting: 0
  Subjects with treatment-emergent serious AE: Cardiac disorders: 0
  Subjects with treatment-emergent serious AE: Cerebrovascular accident: 0
  Subjects with treatment-emergent serious AE: Coronary artery disease: 0
  Subjects with treatment-emergent serious AE: Diverticulitis: 0
  Subjects with treatment-emergent serious AE: Foot deformity: 0
  Subjects with treatment-emergent serious AE: General disorders and administration site conditions: 0
  Subjects with treatment-emergent serious AE: Infections and infestations: 0
  Subjects with treatment-emergent serious AE: Injury, poisoning and procedural complications: 0
  Subjects with treatment-emergent serious AE: Intervertebral disc protrusion: 0
  Subjects with treatment-emergent serious AE: Ligament injury: 0
  Subjects with treatment-emergent serious AE: Musculoskeletal and connective tissue disorders: 0
  Subjects with treatment-emergent serious AE: Nervous system disorders: 0
  Subjects with treatment-emergent serious AE: Non-cardiac chest pain: 0
  Subjects with treatment-emergent serious AE: Respiratory, thoracic and mediastinal disorders: 0
  Subjects with treatment-emergent serious AE: Tonsillar hypertrophy: 0
  Subjects with treatment-emergent serious AE: Ventricular dysfunction: 0
100 mg BID, through Week 56
  Acrochordon: number of subjects: 0
  Actinic keratosis: number of subjects: 0
  Alopecia: number of subjects: 0
  Asthenia: number of subjects: 0
  Asthma: number of subjects: 0
  Atrioventricular block first degree: number of subjects: 0
  Basal cell carcinoma: number of subjects: 0
  Blood and lymphatic system disorders: % of subjects: (2.4%)
  Blood and lymphatic system disorders: number of subjects: 1
  Bronchitis chronic: number of subjects: 0
  Bundle branch block right: % of subjects: (2.4%)
  Bundle branch block right: number of subjects: 1
  Cardiac disorders: % of subjects: (2.4%)
  Cardiac disorders: number of subjects: 1
  Chills: number of subjects: 0
  Cholelithiasis: number of subjects: 0
  Chronic obstructive pulmonary disease: number of subjects: 0
  Coronary artery disease: number of subjects: 0
  Cough: % of subjects: (4.8%)
  Cough: number of subjects: 2
  Decreased appetite: number of subjects: 0
  Depression: % of subjects: (2.4%)
  Depression: number of subjects: 1
  Dermal cyst: number of subjects: 0
  Dermatitis acneiform: number of subjects: 0
  Dermatitis contact: % of subjects: (2.4%)
  Dermatitis contact: number of subjects: 1
  Diabetes mellitus: number of subjects: 0
  Diffuse alopecia: number of subjects: 0
  Dysuria: number of subjects: 0
  Ear and labyrinth disorders: % of subjects: (2.4%)
  Ear and labyrinth disorders: number of subjects: 1
  Endocrine disorders: number of subjects: 0
  Eye disorders: number of subjects: 0
  Eyelid skin dryness: number of subjects: 0
  Fatigue: % of subjects: (4.8%)
  Fatigue: number of subjects: 2
  General disorders and administration site conditions: % of subjects: (9.5%)
  General disorders and administration site conditions: number of subjects: 4
  Goiter: number of subjects: 0
  Haemochromatosis: number of subjects: 0
  Hand dermatitis: number of subjects: 0
  Hematuria: number of subjects: 0
  Hepatobiliary disorders: number of subjects: 0
  Hypercholesterolemia: number of subjects: 0
  Hyperglycemia: % of subjects: (4.8%)
  Hyperglycemia: number of subjects: 2
  Hyperlipidemia: number of subjects: 0
  Hypertension: % of subjects: (4.8%)
  Hypertension: number of subjects: 2
  Hypertransaminasemia: number of subjects: 0
  Hypertriglyceridemia: number of subjects: 0
  Hypoacusis: % of subjects: (2.4%)
  Hypoacusis: number of subjects: 1
  Immune system disorders: % of subjects: (2.4%)
  Immune system disorders: number of subjects: 1
  Influenza like illness: number of subjects: 0
  Insomnia: number of subjects: 0
  Intertrigo: % of subjects: (2.4%)
  Intertrigo: number of subjects: 1
  Ketonuria: % of subjects: (2.4%)
  Ketonuria: number of subjects: 1
  Leukocyturia: number of subjects: 0
  Leukopenia: number of subjects: 0
  Libido decreased: number of subjects: 0
  Liver disorder: number of subjects: 0
  Lymphopenia: number of subjects: 0
  Menopause: number of subjects: 0
  Metabolism and nutrition disorders: % of subjects: (4.8%)
  Metabolism and nutrition disorders: number of subjects: 2
  Neoplasms benign, malignant and unspecified (incl cysts and polyps): % of subjects: (4.8%)
  Neoplasms benign, malignant and unspecified (incl cysts and polyps): number of subjects: 2
  Nephrolithiasis: number of subjects: 0
  Neutropenia: number of subjects: 0
  Night sweats: number of subjects: 0
  Non-cardiac chest pain: number of subjects: 0
  Ocular cyst: number of subjects: 0
  Oedema peripheral: % of subjects: (4.8%)
  Oedema peripheral: number of subjects: 2
  Oropharyngeal pain: number of subjects: 0
  Procedural pain: % of subjects: (2.4%)
  Procedural pain: number of subjects: 1
  Productive cough: % of subjects: (2.4%)
  Productive cough: number of subjects: 1
  Proteinuria: % of subjects: (2.4%)
  Proteinuria: number of subjects: 1
  Pruritus: number of subjects: 0
  Psoriasis: % of subjects: (4.8%)
  Psoriasis: number of subjects: 2
  Psychiatric disorders: % of subjects: (2.4%)
  Psychiatric disorders: number of subjects: 1
  Pyrexia: % of subjects: (2.4%)
  Pyrexia: number of subjects: 1
  Rash pruritic: number of subjects: 0
  Renal and urinary disorders: % of subjects: (4.8%)
  Renal and urinary disorders: number of subjects: 2
  Renal mass: number of subjects: 0
  Respiratory, thoracic and mediastinal disorders: % of subjects: (9.5%)
  Respiratory, thoracic and mediastinal disorders: number of subjects: 4
  Retinal vein occlusion: number of subjects: 0
  Rhinorrhoea: % of subjects: (2.4%)
  Rhinorrhoea: number of subjects: 1
  Seasonal allergy: % of subjects: (2.4%)
  Seasonal allergy: number of subjects: 1
  Skin and subcutaneous tissue disorders: % of subjects: (7.1%)
  Skin and subcutaneous tissue disorders: number of subjects: 3
  Skin laceration: number of subjects: 0
  Skin papilloma: % of subjects: (2.4%)
  Skin papilloma: number of subjects: 1
  Social circumstances: number of subjects: 0
  Steatohepatitis: number of subjects: 0
  Subjects with AE leading to discontinuation: Abdominal pain: 0
  Subjects with AE leading to discontinuation: Alanine aminotransferase increased: 0
  Subjects with AE leading to discontinuation: Aspartate aminotransferase increased: 0
  Subjects with AE leading to discontinuation: Asthenia: 0
  Subjects with AE leading to discontinuation: Chills: 0
  Subjects with AE leading to discontinuation: Ear and labyrinth disorders: 0
  Subjects with AE leading to discontinuation: Gamma-glutamyltransferase increased: 0
  Subjects with AE leading to discontinuation: General disorders and administration site conditions: 0
  Subjects with AE leading to discontinuation: Headache: 0
  Subjects with AE leading to discontinuation: Insomnia: 0
  Subjects with AE leading to discontinuation: Investigations: 0
  Subjects with AE leading to discontinuation: Nausea: 0
  Subjects with AE leading to discontinuation: Nervous system disorders: 0
  Subjects with AE leading to discontinuation: Proctalgia: 0
  Subjects with AE leading to discontinuation: Psoriasis: 0
  Subjects with AE leading to discontinuation: Psychiatric disorders: 0
  Subjects with AE leading to discontinuation: Skin and subcutaneous tissue disorders: 0
  Subjects with AE leading to discontinuation: Suicide attempt: 0
  Subjects with AE leading to discontinuation: Transaminases increased: 0
  Subjects with AE leading to discontinuation: Vertigo: 0
  Subjects with AE leading to discontinuation: Vomiting: 0
  Subjects with AE leading to discontinuation: Weight increased: 0
  Subjects with treatment-emergent AE: Bronchitis: 0
  Subjects with treatment-emergent AE: Gastrointestinal disorders: 7
  Subjects with treatment-emergent AE: Nasopharyngitis: 5
  Subjects with treatment-emergent serious AE: COVID-19: 0
  Subjects with treatment-emergent serious AE: Cardiac disorders: 0
  Subjects with treatment-emergent serious AE: Cerebrovascular accident: 0
  Subjects with treatment-emergent serious AE: Coronary artery disease: 0
  Subjects with treatment-emergent serious AE: Diverticulitis: 0
  Subjects with treatment-emergent serious AE: Foot deformity: 0
  Subjects with treatment-emergent serious AE: General disorders and administration site conditions: 0
  Subjects with treatment-emergent serious AE: Infected cyst: 0
  Subjects with treatment-emergent serious AE: Infections and infestations: 0
  Subjects with treatment-emergent serious AE: Injury, poisoning and procedural complications: 0
  Subjects with treatment-emergent serious AE: Intervertebral disc protrusion: 0
  Subjects with treatment-emergent serious AE: Ligament injury: 0
  Subjects with treatment-emergent serious AE: Musculoskeletal and connective tissue disorders: 0
  Subjects with treatment-emergent serious AE: Nervous system disorders: 0
  Subjects with treatment-emergent serious AE: Non-cardiac chest pain: 0
  Subjects with treatment-emergent serious AE: Psychiatric disorders: 0
  Subjects with treatment-emergent serious AE: Respiratory, thoracic and mediastinal disorders: 0
  Subjects with treatment-emergent serious AE: Suicide attempt: 0
  Subjects with treatment-emergent serious AE: Tonsillar hypertrophy: 0
  Subjects with treatment-emergent serious AE: Ventricular dysfunction: 0
  Suicide attempt: number of subjects: 0
  Sunburn: number of subjects: 0
  Thrombocytopenia: number of subjects: 0
  Thrombocytosis: % of subjects: (2.4%)
  Thrombocytosis: number of subjects: 1
  Tonsillar hypertrophy: number of subjects: 0
  Tooth fracture: % of subjects: (2.4%)
  Tooth fracture: number of subjects: 1
  Type 2 diabetes mellitus: % of subjects: (2.4%)
  Type 2 diabetes mellitus: number of subjects: 1
  Urinary tract disorder: % of subjects: (2.4%)
  Urinary tract disorder: number of subjects: 1
  Uterine leiomyoma: % of subjects: (2.4%)
  Uterine leiomyoma: number of subjects: 1
  Vascular disorders: % of subjects: (4.8%)
  Vascular disorders: number of subjects: 2
  Ventricular dysfunction: number of subjects: 0
  Vertigo: number of subjects: 0
  Vitamin D deficiency: number of subjects: 0
[1]
  Number of subjects with treatment-emergent AE: Cholelithiasis: 1
  Number of subjects with treatment-emergent AE: Ear and labyrinth disorders: 1
  Number of subjects with treatment-emergent AE: Endocrine disorders: 0
  Number of subjects with treatment-emergent AE: Eye disorders: 0
  Number of subjects with treatment-emergent AE: Eyelid skin dryness: 0
  Number of subjects with treatment-emergent AE: Goiter: 0
  Number of subjects with treatment-emergent AE: Hepatobiliary disorders: 1
  Number of subjects with treatment-emergent AE: Hypertransaminasemia: 0
  Number of subjects with treatment-emergent AE: Immune system disorders: 0
  Number of subjects with treatment-emergent AE: Insomnia: 0
  Number of subjects with treatment-emergent AE: Ocular cyst: 0
  Number of subjects with treatment-emergent AE: Psychiatric disorders: 0
  Number of subjects with treatment-emergent AE: Retinal vein occlusion: 0
  Number of subjects with treatment-emergent AE: Seasonal allergy: 0
  Number of subjects with treatment-emergent AE: Vertigo: 1
  Subjects with treatment-emergent AE: Cholelithiasis (%): (2.5%)
  Subjects with treatment-emergent AE: Ear and labyrinth disorders (%): (2.5%)
  Subjects with treatment-emergent AE: Hepatobiliary disorders (%): (2.5%)
  Subjects with treatment-emergent AE: Vertigo (%): (2.5%)
[2]
  Subjects with adverse event: Alanine aminotransferase increased: 0
  Subjects with adverse event: Aspartate aminotransferase increased: 0
  Subjects with adverse event: Bronchitis: 0
  Subjects with adverse event: Meniscus injury: 0
  Subjects with adverse event: Sinusitis: 0
  Subjects with adverse event: Urinary tract infection: 0
  Subjects with serious adverse event: Cerebrovascular accident: 0
  Subjects with serious adverse event: Coronary artery disease: 0
  Subjects with serious adverse event: Foot deformity: 0
  Subjects with serious adverse event: Ligament injury: 0
  Subjects with serious adverse event: Non-cardiac chest pain: 0
  Subjects with serious adverse event: Tonsillar hypertrophy: 0
  Subjects with serious adverse event: Uterine leiomyoma: 0
  Subjects with serious adverse event: Ventricular dysfunction: 0
100 mg QD, Week 16-56
  Subjects with AE leading to discontinuation: Alanine aminotransferase increased: 0
  Subjects with AE leading to discontinuation: Aspartate aminotransferase increased: 0
  Subjects with AE leading to discontinuation: Asthenia: 0
  Subjects with AE leading to discontinuation: Gamma-glutamyltransferase increased: 0
  Subjects with AE leading to discontinuation: Insomnia: 0
  Subjects with AE leading to discontinuation: Investigations: 0
  Subjects with AE leading to discontinuation: Proctalgia: 0
  Subjects with AE leading to discontinuation: Psoriasis: 0
  Subjects with AE leading to discontinuation: Psychiatric disorders: 0
  Subjects with AE leading to discontinuation: Skin and subcutaneous tissue disorders: 0
  Subjects with COVID-19 associated AE of interest: SARS-CoV-2 test positive: 0
  Subjects with treatment-emergent AE: Alanine aminotransferase increased: 0
  Subjects with treatment-emergent AE: Aspartate aminotransferase increased: 0
